Results: patent US11179363B2, “Non-steroidal selective glucocorticoid receptor agonistic modulators (SEGRAMs) and uses thereof” (ASSOCIATION POUR LA RECHERCHE À L'IGBMC (ARI), priority 2017, dated 2021)

What was measured:
[1] = test system: experimental models of dry eye and postoperative inflammation; conditions: in vivo, cited from earlier work
corneal epithelial cells = conditions: in vitro; cited from earlier work
[2] = target: T1, glucocorticoid receptor (GR) (Mus musculus, UniProt P06537); test: In vivo transcriptional analysis (q-RT-PCR) of the three GR functions in mouse ears; set-up: species or system Balb/C mice; conditions: topical 18 hours, 1 nmole/cm^2
T1 construct: RNA transcripts were then extracted from mouse ears; from tissue; host or cells: ear skin of Balb/C mice (in vivo topical treatment)
T1 sequence (P06537 1-792): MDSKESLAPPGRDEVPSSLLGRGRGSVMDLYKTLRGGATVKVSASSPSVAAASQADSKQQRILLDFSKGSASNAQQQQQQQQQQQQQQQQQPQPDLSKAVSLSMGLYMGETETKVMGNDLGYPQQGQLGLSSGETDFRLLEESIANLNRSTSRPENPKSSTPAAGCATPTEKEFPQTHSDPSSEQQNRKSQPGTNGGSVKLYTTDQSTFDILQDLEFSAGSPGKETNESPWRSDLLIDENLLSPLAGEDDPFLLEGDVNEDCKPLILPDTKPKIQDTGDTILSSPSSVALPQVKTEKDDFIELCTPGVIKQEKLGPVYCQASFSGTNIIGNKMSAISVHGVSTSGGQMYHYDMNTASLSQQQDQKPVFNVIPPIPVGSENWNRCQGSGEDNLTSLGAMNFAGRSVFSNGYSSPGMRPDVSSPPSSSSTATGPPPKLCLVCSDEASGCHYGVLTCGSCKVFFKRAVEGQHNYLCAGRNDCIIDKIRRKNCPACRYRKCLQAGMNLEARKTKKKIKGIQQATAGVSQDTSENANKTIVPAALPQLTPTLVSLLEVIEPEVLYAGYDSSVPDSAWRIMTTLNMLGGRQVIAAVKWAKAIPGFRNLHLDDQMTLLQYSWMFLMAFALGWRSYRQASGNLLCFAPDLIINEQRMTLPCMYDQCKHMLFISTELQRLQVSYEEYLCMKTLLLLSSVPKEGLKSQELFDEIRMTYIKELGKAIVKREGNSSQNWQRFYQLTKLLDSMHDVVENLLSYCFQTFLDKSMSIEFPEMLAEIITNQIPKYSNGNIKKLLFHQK
Procedure: RNA transcripts were then extracted from mouse ears and the transcripts of 4 genes were analyzed by q-RT-PCR: • (i) the directly GR-transactivated gene of the mTOR inhibitor REDD1, • (ii) the GR-directly transrepressed gene of keratin 5 (K5) and • (iii) the GR-indirectly “tethered” transrepressed genes of interleukin-1β (IL-1β) and interleukin-6 (IL-6), both being activated in presence of 12-O-tetradecanoylphorbol-13-acetate (TPA). Results

Cc1ccc2c(NC[C@](O)(CC(C)(C)c3cc(F)cc4c3OCC4)C(F)(F)F)cccc2n1 [Mapracorat]
side effects in intraocular pressure and body weight ([1]; vs dexamethasone): reduced side effects | anti-inflammatory activity vs dexamethasone [1]: comparable | anti-inflammatory action in corneal epithelial cells challenged with osmotic stress (corneal epithelial cells): act as an anti-inflammatory agent | GR functions induced (direct transactivation, direct transrepression, indirect tethered transrepression) [2]: induces all three GR functions
